# Assay results as given in ChEMBL document CHEMBL1201862, “PubChem BioAssay data set” (2004).
# Active and inactive are the calls of the source. The rule behind the calls is not given here.
# Assays:
# Format in all cases: functional
# [1] = target: Serine/threonine-protein kinase pim-1 (Homo sapiens, UniProt P11309)
# [2] = target: T1, Serine/threonine-protein kinase TAO1 (Homo sapiens, UniProt Q7L7X3)
# T1 sequence (Q7L7X3 whole entry): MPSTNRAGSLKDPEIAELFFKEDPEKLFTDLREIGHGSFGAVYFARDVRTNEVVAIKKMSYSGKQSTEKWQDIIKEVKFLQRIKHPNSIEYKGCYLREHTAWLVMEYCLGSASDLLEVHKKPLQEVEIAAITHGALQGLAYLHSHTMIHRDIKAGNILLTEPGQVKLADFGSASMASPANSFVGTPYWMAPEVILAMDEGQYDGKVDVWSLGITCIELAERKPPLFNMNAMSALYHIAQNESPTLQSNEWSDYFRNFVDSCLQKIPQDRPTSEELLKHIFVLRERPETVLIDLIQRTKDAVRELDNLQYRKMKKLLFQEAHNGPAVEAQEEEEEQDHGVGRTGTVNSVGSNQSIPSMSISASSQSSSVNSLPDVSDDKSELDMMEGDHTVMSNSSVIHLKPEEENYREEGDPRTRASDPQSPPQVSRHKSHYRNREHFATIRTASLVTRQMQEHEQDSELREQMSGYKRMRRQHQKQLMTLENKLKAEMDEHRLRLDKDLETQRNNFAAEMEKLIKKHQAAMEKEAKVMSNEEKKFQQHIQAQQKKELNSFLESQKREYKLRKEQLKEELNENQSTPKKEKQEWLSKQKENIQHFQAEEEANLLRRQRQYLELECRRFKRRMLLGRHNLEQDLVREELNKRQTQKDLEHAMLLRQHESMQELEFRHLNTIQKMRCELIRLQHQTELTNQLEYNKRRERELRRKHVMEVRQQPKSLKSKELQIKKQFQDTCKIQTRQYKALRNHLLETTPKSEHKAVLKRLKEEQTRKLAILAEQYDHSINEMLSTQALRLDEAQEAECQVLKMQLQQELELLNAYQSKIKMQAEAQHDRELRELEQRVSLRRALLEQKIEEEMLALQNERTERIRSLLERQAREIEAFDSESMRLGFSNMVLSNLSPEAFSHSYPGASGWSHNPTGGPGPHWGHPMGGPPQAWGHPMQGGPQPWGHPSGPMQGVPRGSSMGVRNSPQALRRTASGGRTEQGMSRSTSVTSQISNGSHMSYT
# [3] = target: T2, Serine/threonine-protein kinase D3 (Homo sapiens, UniProt O94806);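 note: determined within a kinase panel screen, with PRKCN as the panel member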
# T2 sequence (O94806 whole entry): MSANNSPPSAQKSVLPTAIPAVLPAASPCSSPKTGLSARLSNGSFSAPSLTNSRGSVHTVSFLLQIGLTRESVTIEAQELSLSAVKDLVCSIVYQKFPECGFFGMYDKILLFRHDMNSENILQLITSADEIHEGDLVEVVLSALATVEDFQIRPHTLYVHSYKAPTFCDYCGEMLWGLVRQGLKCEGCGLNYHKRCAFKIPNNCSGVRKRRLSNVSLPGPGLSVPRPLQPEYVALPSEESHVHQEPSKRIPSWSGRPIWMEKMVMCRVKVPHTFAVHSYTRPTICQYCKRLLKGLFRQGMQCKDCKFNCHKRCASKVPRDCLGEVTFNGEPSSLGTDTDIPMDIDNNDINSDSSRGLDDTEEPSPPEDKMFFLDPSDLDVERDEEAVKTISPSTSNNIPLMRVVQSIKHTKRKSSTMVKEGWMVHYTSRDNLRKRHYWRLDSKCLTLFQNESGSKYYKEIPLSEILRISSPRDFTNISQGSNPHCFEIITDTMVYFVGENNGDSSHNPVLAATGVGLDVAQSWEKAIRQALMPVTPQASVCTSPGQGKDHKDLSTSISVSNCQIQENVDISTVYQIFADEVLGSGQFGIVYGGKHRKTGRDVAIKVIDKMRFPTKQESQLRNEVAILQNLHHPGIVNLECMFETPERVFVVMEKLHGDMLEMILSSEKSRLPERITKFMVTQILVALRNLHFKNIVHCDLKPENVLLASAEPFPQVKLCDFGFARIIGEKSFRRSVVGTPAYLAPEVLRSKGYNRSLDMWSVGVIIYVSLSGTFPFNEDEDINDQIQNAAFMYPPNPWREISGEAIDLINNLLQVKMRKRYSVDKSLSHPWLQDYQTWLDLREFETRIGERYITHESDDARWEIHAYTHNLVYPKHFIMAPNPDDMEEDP
# [4] = target: T3, Tyrosine-protein kinase JAK3 (Homo sapiens, UniProt P52333)
# T3 sequence (P52333 whole entry): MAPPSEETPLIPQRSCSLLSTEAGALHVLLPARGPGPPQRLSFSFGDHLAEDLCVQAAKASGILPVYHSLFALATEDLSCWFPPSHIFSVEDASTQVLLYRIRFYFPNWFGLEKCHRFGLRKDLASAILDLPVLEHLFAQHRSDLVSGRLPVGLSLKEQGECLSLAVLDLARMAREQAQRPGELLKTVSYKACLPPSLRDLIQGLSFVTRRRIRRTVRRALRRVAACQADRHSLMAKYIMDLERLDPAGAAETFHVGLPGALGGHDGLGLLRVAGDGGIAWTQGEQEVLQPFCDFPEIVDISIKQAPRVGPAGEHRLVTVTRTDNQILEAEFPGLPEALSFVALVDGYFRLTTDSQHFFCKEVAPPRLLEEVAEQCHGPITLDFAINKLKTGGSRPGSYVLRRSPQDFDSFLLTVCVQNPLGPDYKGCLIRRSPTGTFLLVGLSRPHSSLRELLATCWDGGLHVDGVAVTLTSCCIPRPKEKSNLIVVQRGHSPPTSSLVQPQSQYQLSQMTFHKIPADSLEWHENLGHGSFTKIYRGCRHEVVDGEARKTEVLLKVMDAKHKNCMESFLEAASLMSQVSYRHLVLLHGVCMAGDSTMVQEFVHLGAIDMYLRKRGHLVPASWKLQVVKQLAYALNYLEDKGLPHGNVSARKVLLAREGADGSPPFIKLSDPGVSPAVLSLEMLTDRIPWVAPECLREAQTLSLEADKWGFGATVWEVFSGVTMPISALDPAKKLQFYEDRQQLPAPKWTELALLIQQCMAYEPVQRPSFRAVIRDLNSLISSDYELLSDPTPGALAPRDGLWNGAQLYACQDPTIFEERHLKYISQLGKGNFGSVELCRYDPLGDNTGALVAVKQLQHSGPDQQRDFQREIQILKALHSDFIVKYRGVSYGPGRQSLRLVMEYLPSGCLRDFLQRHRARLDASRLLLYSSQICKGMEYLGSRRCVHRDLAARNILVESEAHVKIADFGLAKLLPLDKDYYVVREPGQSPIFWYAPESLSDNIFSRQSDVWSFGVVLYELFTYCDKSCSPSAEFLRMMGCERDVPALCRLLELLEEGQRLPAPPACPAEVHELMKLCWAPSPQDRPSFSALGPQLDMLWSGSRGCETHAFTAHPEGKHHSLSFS
# [5] = target: Rho-associated protein kinase 1 (Homo sapiens, UniProt Q13464);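 note: measured within a broad kinome-wide panel profiling many kinases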
# Sequence of Rho-associated protein kinase 1 (Q13464 whole entry): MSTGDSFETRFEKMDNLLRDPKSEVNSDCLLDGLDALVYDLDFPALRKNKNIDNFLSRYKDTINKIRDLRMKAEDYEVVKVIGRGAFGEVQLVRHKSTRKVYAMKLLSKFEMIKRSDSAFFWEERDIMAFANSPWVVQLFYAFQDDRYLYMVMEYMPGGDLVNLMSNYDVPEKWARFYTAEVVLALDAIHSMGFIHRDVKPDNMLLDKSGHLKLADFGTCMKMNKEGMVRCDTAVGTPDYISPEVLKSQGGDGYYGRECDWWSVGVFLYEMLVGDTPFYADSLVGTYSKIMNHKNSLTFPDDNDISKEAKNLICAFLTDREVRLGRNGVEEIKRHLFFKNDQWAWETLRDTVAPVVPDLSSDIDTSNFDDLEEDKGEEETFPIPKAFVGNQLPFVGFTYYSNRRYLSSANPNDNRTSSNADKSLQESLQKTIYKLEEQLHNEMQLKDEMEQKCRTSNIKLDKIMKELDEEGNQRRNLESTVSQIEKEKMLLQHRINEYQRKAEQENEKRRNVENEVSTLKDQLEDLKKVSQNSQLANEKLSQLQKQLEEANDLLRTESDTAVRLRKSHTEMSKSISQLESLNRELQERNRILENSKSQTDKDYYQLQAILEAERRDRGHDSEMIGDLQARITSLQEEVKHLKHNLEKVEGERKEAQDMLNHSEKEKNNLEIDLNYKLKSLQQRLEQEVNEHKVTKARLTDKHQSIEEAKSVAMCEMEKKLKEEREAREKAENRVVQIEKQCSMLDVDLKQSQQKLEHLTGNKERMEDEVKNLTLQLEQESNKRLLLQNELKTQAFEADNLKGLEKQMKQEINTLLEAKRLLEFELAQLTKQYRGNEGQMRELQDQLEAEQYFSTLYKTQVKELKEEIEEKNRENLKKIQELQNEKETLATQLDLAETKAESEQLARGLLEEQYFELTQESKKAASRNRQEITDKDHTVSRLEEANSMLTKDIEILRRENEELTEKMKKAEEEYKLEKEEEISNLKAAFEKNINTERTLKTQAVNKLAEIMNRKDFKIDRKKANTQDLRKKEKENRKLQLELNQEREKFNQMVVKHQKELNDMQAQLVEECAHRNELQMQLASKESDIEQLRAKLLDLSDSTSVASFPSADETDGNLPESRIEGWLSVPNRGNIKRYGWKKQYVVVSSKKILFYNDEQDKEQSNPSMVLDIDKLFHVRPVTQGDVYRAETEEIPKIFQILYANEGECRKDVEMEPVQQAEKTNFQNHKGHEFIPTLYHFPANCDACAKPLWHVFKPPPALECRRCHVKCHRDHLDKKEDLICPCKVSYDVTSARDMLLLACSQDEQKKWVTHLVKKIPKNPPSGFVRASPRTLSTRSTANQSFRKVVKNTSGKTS
# Sequence of Serine/threonine-protein kinase pim-1 (P11309 whole entry): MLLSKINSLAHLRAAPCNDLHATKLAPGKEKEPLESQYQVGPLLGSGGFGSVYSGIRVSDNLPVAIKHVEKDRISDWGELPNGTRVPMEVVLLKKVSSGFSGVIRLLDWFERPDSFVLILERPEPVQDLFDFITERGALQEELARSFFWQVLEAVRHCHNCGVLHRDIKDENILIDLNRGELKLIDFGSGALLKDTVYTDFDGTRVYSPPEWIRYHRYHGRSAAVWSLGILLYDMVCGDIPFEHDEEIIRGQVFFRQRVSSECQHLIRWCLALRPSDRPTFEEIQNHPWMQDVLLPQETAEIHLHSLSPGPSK
Ki [1],Ki [2],Ki [3],Ki [4],Ki [5],SMILES
3.98 µM (active),> 6.31 µM (inactive),> 3.98 µM (inactive),> 5.01 µM (inactive),> 2 µM (inactive),O=C(Nc1n[nH]c2ccc(-c3cn(Cc4ccccc4)nn3)cc12)c1cc(F)ccc1F
> 5.01 µM (inactive),> 3.98 µM (inactive),> 2 µM (inactive),> 2.51 µM (inactive),> 6.31 µM (inactive),CS(=O)(=O)N(Cc1ccc2[nH]c(=O)c3cccn3c2c1)C1CC1
> 6.31 µM (inactive),> 6.31 µM (inactive),3.16 µM (active),> 5.01 µM (inactive),1.58 µM (active),CS(=O)(=O)Nc1ccc(Nc2ccc3[nH]nc(N)c3c2)cc1
